US10758534B2 (Vertex Pharmaceuticals Incorporated, priority 2014, dated 2020)
Values belong to the compound of their own block, whether it stands above or below them.

Biological target: T1, F508del (Homo sapiens, UniProt P13569, DEL508-508)
T1 construct: expressed in transfected cells
Test: Protocol 2: FRET membrane potential optical assay (VIPR), identification of correction compounds
Assay type: cell-based
Details: Table 3; compounds of Table 1 as modulators of CFTR activity; protocol not stated
Outline: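 Corrector readout: membrane-potential FRET (CC2-DMPE donor, DiSBAC2(3) acceptor) on VIPR II after Cl⁻-free gluconate bath with 10 μM forskolin and 20 μM genistein. Before this, F508del-expressing NIH3T3 cells were exposed to test compound for 16 h at 37 °C without serum; 27 °C incubation served as temperature-correction control.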

T1 sequence (P13569 with tags, fused parts or gaps DEL508-508): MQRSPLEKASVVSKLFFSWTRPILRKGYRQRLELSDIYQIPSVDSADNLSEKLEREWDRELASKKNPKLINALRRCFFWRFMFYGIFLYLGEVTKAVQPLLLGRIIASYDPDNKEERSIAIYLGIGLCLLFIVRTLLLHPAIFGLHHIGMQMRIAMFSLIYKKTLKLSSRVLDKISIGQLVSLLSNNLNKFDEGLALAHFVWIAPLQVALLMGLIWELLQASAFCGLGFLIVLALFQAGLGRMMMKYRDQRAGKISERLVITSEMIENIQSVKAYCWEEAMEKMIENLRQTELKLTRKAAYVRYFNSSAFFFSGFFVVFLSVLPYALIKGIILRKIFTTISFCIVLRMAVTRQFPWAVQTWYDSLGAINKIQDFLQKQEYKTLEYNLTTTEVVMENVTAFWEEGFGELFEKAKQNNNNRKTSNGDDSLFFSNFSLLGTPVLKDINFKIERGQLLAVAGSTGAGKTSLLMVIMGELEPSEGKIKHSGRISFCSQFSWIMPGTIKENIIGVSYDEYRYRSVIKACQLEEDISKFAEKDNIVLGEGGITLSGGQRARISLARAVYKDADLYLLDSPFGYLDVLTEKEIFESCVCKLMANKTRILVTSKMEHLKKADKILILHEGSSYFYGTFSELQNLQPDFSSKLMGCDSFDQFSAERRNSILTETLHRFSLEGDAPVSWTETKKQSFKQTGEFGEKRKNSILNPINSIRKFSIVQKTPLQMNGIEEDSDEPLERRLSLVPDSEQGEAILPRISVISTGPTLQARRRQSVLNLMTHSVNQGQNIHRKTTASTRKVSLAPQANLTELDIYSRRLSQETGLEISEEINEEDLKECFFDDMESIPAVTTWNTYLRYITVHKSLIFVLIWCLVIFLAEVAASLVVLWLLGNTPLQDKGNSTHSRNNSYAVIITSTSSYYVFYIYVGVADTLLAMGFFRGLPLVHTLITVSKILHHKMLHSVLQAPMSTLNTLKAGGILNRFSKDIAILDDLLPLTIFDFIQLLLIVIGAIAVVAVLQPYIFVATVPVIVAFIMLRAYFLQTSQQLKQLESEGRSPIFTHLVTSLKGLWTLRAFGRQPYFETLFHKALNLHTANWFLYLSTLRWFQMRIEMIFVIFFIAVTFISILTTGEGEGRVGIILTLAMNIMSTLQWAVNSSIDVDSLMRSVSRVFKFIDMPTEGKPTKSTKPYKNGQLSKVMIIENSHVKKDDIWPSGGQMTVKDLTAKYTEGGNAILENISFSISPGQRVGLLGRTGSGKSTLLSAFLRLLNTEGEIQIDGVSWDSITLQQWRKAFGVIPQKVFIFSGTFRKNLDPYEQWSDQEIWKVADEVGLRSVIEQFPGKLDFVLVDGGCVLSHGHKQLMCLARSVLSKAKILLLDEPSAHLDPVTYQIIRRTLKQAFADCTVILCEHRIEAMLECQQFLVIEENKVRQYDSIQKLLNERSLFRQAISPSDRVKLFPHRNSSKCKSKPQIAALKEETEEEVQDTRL

Compound: CC(C)Oc1ccc(-c2ccc(C(=O)NS(=O)(=O)c3cccc(N)n3)c(N3CCc4ccccc43)n2)cn1 [Compound 588, N-[(6-amino-2-pyridyl)sulfonyl]-2-indolin-1-yl-6-(6-isopropoxy-3-pyridyl)pyridine-3-carboxamide]
- EC30: ++ (“++” means between 3 uM and 10 uM)

Compound: CC(C)c1ccc(-c2ccc(C(=O)NS(=O)(=O)c3ccc[nH]c3=O)c(N3[C@H](C)CC[C@@H]3C)n2)cc1 [Compound 589, 2-[(2S,5R)-2,5-dimethylpyrrolidin-1-yl]-6-(4-isopropylphenyl)-N-[(2-oxo-1H-pyridin-3-yl)sulfonyl]pyridine-3-carboxamide]
- EC30: +++ (“+++” means <3 uM)

Compound: Cc1ccc(Oc2nc(-c3cc(F)cc(OCC(C)C)c3)ccc2C(=O)NS(=O)(=O)c2cccc(N)n2)c(C)c1 [Compound 590, N-[(6-amino-2-pyridyl)sulfonyl]-2-(2,4-dimethylphenoxy)-6-(3-fluoro-5-isobutoxy-phenyl)pyridine-3-carboxamide]
- EC30: +++ (“+++” means <3 uM)

Compound: CC[C@@H]1CCCN1c1nc(-c2cc(F)cc(OCC(C)C)c2)ccc1C(=O)NS(=O)(=O)c1ccn[nH]1 [Compound 591, 2-(2-ethylpyrrolidin-1-yl)-6-(3-fluoro-5-isobutoxy-phenyl)-N-(1H-pyrazol-5-ylsulfonyl)pyridine-3-carboxamide]
- EC30: +++ (“+++” means <3 uM)

Compound: CC(C)COc1cc(F)cc(-c2ccc(C(=O)NS(=O)(=O)c3cccc(N)n3)c(N3CCCC3)n2)c1 [Compound 592, N-[(6-amino-2-pyridyl)sulfonyl]-6-(3-fluoro-5-isobutoxy-phenyl)-2-pyrrolidin-1-yl-pyridine-3-carboxamide]
- EC30: +++ (“+++” means <3 uM)

Compound: CC(C)COc1cc(F)cc(-c2ccc(C(=O)NS(=O)(=O)c3cccc(N)n3)c(N3CCCC3C3CC3)n2)c1 (stereo not drawn) [Compound 593, N-[(6-amino-2-pyridyl)sulfonyl]-2-(2-cyclopropylpyrrolidin-1-yl)-6-(3-fluoro-5-isobutoxy-phenyl)pyridine-3-carboxamide]
- EC30: +++ (“+++” means <3 uM)

Compound: CC(C)Oc1ccc(-c2ccc(C(=O)NS(=O)(=O)c3cccc(N)n3)c(N3CC4C(C3)C4(C)C)n2)cn1 (stereo not drawn) [Compound 596, N-[(6-amino-2-pyridyl)sulfonyl]-2-(6,6-dimethyl-3-azabicyclo[3.1.0]hexan-3-yl)-6-(6-isopropoxy-3-pyridyl)pyridine-3-carboxamide]
- EC30: ++ (“++” means between 3 uM and 10 uM)

Compound: CC(C)Oc1ccc(-c2ccc(C(=O)NS(=O)(=O)c3cccc(N)n3)c(N3CCCC3C(C)(C)C)n2)cn1 (stereo not drawn) [Compound 597, N-[(6-amino-2-pyridyl)sulfonyl]-2-(2-tert-butylpyrrolidin-1-yl)-6-(6-isopropoxy-3-pyridyl)pyridine-3-carboxamide]
- EC30: +++ (“+++” means <3 uM)

Compound: CC1CCN(c2nc(-c3cc(F)cc(OC(C)C)c3)ccc2C(=O)NS(=O)(=O)c2cccc(N)n2)CC1 [Compound 600, N-[(6-amino-2-pyridyl)sulfonyl]-6-(3-fluoro-5-isopropoxy-phenyl)-2-(4-methyl-1-piperidyl)pyridine-3-carboxamide]
- EC30: +++ (“+++” means <3 uM)

Compound: CC(C)Oc1ccc(-c2ccc(C(=O)NS(=O)(=O)c3cccc(N)n3)c(N3C(C)CC(c4ccccc4)C3C)n2)cn1 (stereo not drawn) [Compound 601, N-[(6-amino-2-pyridyl)sulfonyl]-2-(2,5-dimethyl-3-phenyl-pyrrolidin-1-yl)-6-(6-isopropoxy-3-pyridyl)pyridine-3-carboxamide]
- EC30: +++ (“+++” means <3 uM)

Compound: CC(C)COc1cc(F)cc(-c2ccc(C(=O)NS(=O)(=O)c3ccc[nH]c3=O)c(N3C[C@H](C)CC3(C)C)n2)c1 [Compound 605, 6-(3-fluoro-5-isobutoxy-phenyl)-N-[(2-oxo-1H-pyridin-3-yl)sulfonyl]-2-[(4R)-2,2,4-trimethylpyrrolidin-1-yl]pyridine-3-carboxamide]
- EC30: +++ (“+++” means <3 uM)

Compound: COCC1CCN(c2nc(-c3ccc(OC(C)C)nc3)ccc2C(=O)NS(=O)(=O)c2cccc(N)n2)CC1 [Compound 606, N-[(6-amino-2-pyridyl)sulfonyl]-6-(6-isopropoxy-3-pyridyl)-2-[4-(methoxymethyl)-1-piperidyl]pyridine-3-carboxamide]
- EC30: ++ (“++” means between 3 uM and 10 uM)

Compound: Cc1ccc(-c2ccc(C(=O)NS(=O)(=O)c3nccnc3N)c(Oc3ccc(C)cc3C)n2)cc1 [Compound 607, N-(3-aminopyrazin-2-yl)sulfonyl-2-(2,4-dimethylphenoxy)-6-(p-tolyl)pyridine-3-carboxamide]
- EC30: +++ (“+++” means <3 uM)

Further lines, results first:

- EC30: ++ (“++” means between 3 uM and 10 uM)
Compound: Cc1cc(C)c(Oc2nc(C)ccc2C(=O)NS(=O)(=O)c2cccc(NC3CC3)n2)c(C)c1 [Compound 594, N-[[6-(cyclopropylamino)-2-pyridyl]sulfonyl]-6-methyl-2-(2,4,6-trimethylphenoxy)pyridine-3-carboxamide]

- EC30: +++ (“+++” means <3 uM)
Compound: Cc1cc(C)c(Oc2nc(-c3ccccc3)ccc2C(=O)NS(=O)(=O)c2cccc(NCCO)n2)c(C)c1 [Compound 595, N-[[6-(2-hydroxyethylamino)-2-pyridyl]sulfonyl]-6-phenyl-2-(2,4,6-trimethylphenoxy)pyridine-3-carboxamide]

- EC30: ++ (“++” means between 3 uM and 10 uM)
Compound: COc1cc2cc(C(=O)NS(=O)(=O)c3cccc(N)c3)n(Cc3c(C)cc(C)cc3C)c2cc1OC [Compound 598, N-(3-aminophenyl)sulfonyl-5,6-dimethoxy-1-[(2,4,6-trimethylphenyl)methyl]indole-2-carboxamide]

- EC30: +++ (“+++” means <3 uM)
Compound: CCOc1ccc(F)c(-c2ccc(C(=O)NS(=O)(=O)c3cccc(N)n3)c(Oc3c(C)cc(C)cc3C)n2)c1 [Compound 599, N-[(6-amino-2-pyridyl)sulfonyl]-6-(5-ethoxy-2-fluoro-phenyl)-2-(2,4,6-trimethylphenoxy)pyridine-3-carboxamide]

- EC30: +++ (“+++” means <3 uM)
Compound: CCOc1ccc(-c2ccc(C(=O)NS(=O)(=O)c3cccc(N)n3)c(Oc3c(C)cc(C)cc3C)n2)c(F)c1 [Compound 602, N-[(6-amino-2-pyridyl)sulfonyl]-6-(4-ethoxy-2-fluoro-phenyl)-2-(2,4,6-trimethylphenoxy)pyridine-3-carboxamide]

- EC30: +++ (“+++” means <3 uM)
Compound: Cc1cccc(C)c1Cn1nc(C(C)(C)C)cc1C(=O)NS(=O)(=O)c1ccsc1 [Compound 603, 5-tert-butyl-2-[(2,6-dimethylphenyl)methyl]-N-(3-thienylsulfonyl)pyrazole-3-carboxamide]

- EC30: +++ (“+++” means <3 uM)
Compound: Cc1cc(C)c(CN2c3ccccc3CCCC2C(=O)NS(=O)(=O)c2ccccc2)c(C)c1 (stereo not drawn) [Compound 604, N-(benzenesulfonyl)-1-[(2,4,6-trimethylphenyl)methyl]-2,3,4,5-tetrahydro-1-benzazepine-2-carboxamide]

- EC30: ++ (“++” means between 3 uM and 10 uM)
Compound: COc1cc(F)ccc1-c1ccc(C(=O)NS(=O)(=O)c2ccc[nH]c2=O)c(Oc2c(C)cc(C)cc2C)n1 [Compound 608, 6-(4-fluoro-2-methoxy-phenyl)-N-[(2-oxo-1H-pyridin-3-yl)sulfonyl]-2-(2,4,6-trimethylphenoxy)pyridine-3-carboxamide]
